Legend:
Carbonic anhydrase 2 [1] = biological target: T1, Carbonic anhydrase 2 (Homo sapiens, UniProt P00918); experiment: Inhibition of human erythrocytes carbonic anhydrase 2 by CO2 hydration assay
Carbonic anhydrase 1 = Carbonic anhydrase 1 (Homo sapiens, UniProt P00915); experiment: Inhibition of human erythrocytes carbonic anhydrase 1 by CO2 hydration assay
Carbonic anhydrase 2 [2] = biological target: T1, Carbonic anhydrase 2; experiment: Binding affinity to human carbonic anhydrase 2

Chain of Carbonic anhydrase 1 (P00915 whole entry): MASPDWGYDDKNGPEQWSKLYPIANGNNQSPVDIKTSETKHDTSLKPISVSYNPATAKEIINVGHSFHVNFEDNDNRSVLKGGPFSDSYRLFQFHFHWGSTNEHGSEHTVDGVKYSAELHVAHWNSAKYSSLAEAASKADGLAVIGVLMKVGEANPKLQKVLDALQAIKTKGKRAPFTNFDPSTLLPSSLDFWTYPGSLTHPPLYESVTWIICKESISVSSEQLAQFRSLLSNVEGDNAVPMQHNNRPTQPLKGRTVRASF

With O=S(=O)(O)c1ccc(/C=N/Cc2ccccc2)o1 the Ki (Carbonic anhydrase 2 [1]) was > 100 µM.
For Fc1ccccc1/C=N/Cc1ccccc1, the Ki (Carbonic anhydrase 1) was > 100 µM and the Ki (Carbonic anhydrase 2 [1]) was > 100 µM.
O=C(O)c1cccc(CNCc2ccccc2)c1 was tested, and the Ki (Carbonic anhydrase 1) was > 100 µM and the Ki (Carbonic anhydrase 2 [1]) was > 100 µM.
Compound Cc1ccc(S(=O)(=O)O)cc1 has a Ki (Carbonic anhydrase 2 [2]) of 460 µM.
In the case of O=C(O)c1cccc(/C=N/Cc2ccccc2)c1, the Ki (Carbonic anhydrase 1) is reported as > 100 µM and the Ki (Carbonic anhydrase 2 [1]) is reported as > 100 µM.
In the case of Fc1ccccc1CNCc1ccccc1, the Ki (Carbonic anhydrase 1) is reported as > 100 µM and the Ki (Carbonic anhydrase 2 [1]) is reported as > 100 µM.

Source: ChEMBL document CHEMBL1158472, “Carbonic anhydrase-encoded dynamic constitutional libraries: toward the discovery of isozyme-specific inhibitors” (J Med Chem, 2009)
